In PubChem BioAssay (NCI):
Several values for one entry are separate records, joined by “and”; a condition that tells them apart may be missing. Identical values can stand only once.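 In this assay, cells in 96-well plates receive the compound at five concentrations for 48 hours. Endpoints are linearly interpolated between the surrounding concentrations. Abbreviation: GI50, concentration required for 50% inhibition of growth. Definition used: TGI = concentration required for complete inhibition of growth.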

Columns and labels:
Assay in all cases: inhibition of tumour cell growth, NCI panel, 48 h
CCRF-CEM leukemia = test system: CCRF-CEM leukemia
HS 578T breast = test system: HS 578T breast
MDA-N = test system: MDA-N
OVCAR-4 ovarian = test system: OVCAR-4 ovarian
SF-268 CNS = test system: SF-268 CNS
SF-539 CNS = test system: SF-539 CNS
SK-MEL-2 melanoma = test system: SK-MEL-2 melanoma
SK-MEL-28 melanoma = test system: SK-MEL-28 melanoma
T-47D breast = test system: T-47D breast
TK-10 renal = test system: TK-10 renal
UACC-257 melanoma = test system: UACC-257 melanoma
HL-60(TB) leukemia = test system: HL-60(TB) leukemia

| SMILES | TGI (CCRF-CEM leukemia) | TGI (HS 578T breast) [µM] | TGI (MDA-N) [µM] | TGI (OVCAR-4 ovarian) [µM] | TGI (SF-268 CNS) [µM] | TGI (SF-539 CNS) | TGI (SK-MEL-2 melanoma) | TGI (SK-MEL-28 melanoma) | TGI (T-47D breast) [µM] | TGI (TK-10 renal) [µM] | TGI (UACC-257 melanoma) [µM] | TGI (HL-60(TB) leukemia) [µM] | GI50 (CCRF-CEM leukemia) | GI50 (HL-60(TB) leukemia) [µM] | GI50 (SF-268 CNS) [µM] | GI50 (SF-539 CNS) [µM] | GI50 (SK-MEL-2 melanoma) [µM] | GI50 (SK-MEL-28 melanoma) [µM] | GI50 (UACC-257 melanoma) [µM] |
| --- | --- | --- | --- | --- | --- | --- | --- | --- | --- | --- | --- | --- | --- | --- | --- | --- | --- | --- | --- |
| O=C(/C=C/C=C/c1ccccc1)c1ccc2c(c1)CCCC2 | > 100 µM | 30.4 | 62.8 | > 100 | 42.6 | > 100 µM | > 100 µM | > 100 µM | 93.9 | > 100 | > 100 | – | – | – | – | – | – | – | – |
| O=C(CCc1cc(O)cc(O)c1)NCCc1cc(O)cc(O)c1 | – | > 100 | > 100 | – | > 100 | > 100 µM | > 100 µM | > 100 µM | > 100 | > 100 | > 100 | – | – | – | – | – | – | – | – |
| Nc1nc2c(ncn2Cc2ccc(CO)cc2)c(=O)[nH]1 | > 100 µM | > 100 | – | > 100 | > 100 | > 100 µM | > 100 µM | > 100 µM | > 100 | > 100 | > 100 | > 100 | – | – | – | – | – | – | – |
| CN(CCN(C)C(=S)NN)C(=S)NN | > 100 µM | > 100 | > 100 | > 100 | > 100 | – | > 100 µM | > 100 µM | > 100 | – | > 100 | > 100 | – | – | – | – | – | – | – |
| COc1ccc(-c2c(C#N)c(O)n(NS(=O)(=O)c3ccc(C)cc3)c(=O)c2C#N)cc1 | > 100 µM | > 100 | > 100 | > 100 | > 100 | > 100 µM | > 100 µM | > 100 µM | – | > 100 | > 100 | > 100 | – | – | – | – | – | – | – |
| Cc1ccc(C(=O)N/N=C(\N=Nc2ccccc2[N+](=O)[O-])c2ccc(N(C)C)cc2)cc1 | > 100 µM | > 100 | > 100 | > 100 | > 100 | > 100 µM | > 100 µM | > 100 µM | – | > 100 | > 100 | > 100 | – | – | – | – | – | – | – |
| COc1ccc(N2C(=O)CS(=O)(=O)C2c2cccc(Oc3ccccc3)c2)cc1 (stereo unspecified) | > 100 µM | 28.5 | – | 79.5 | 38.4 | 15.1 µM | 15.9 µM | > 100 µM | > 100 | 8.46 | 10.9 | > 100 | – | – | – | – | – | – | – |
| CC(=C\c1ccccc1)/C=C(\C#N)C(N)=O | – | > 10 | > 10 | – | > 10 | > 10 µM | > 10 µM | > 10 µM | > 10 | > 10 | – | – | – | – | – | – | – | – | – |
| O=C1/C(=C/c2ccccc2)NC(=S)N1CN1CCOCC1 | > 100 µM | > 100 | > 100 | > 100 | > 100 | – | > 100 µM | > 100 µM | – | > 100 | > 100 | – | – | – | – | – | – | – | – |
| COc1ccc(/C=N/n2c(-c3ccccc3)n[nH]c2=O)cc1 | > 100 µM | 93.7 | > 100 | > 100 | > 100 | > 100 µM | > 100 µM | > 100 µM | > 100 | – | > 100 | – | – | – | – | – | – | – | – |
| O=C(CC(=O)c1ccccc1)CC(O)(c1ccccc1)c1ccccc1 | 26 µM | – | – | 17.9 | 24.6 | – | 22.2 µM | 31.9 µM | – | 42.1 | 29.7 | 6.54 | – | – | – | – | – | – | – |
| CC[C@]1(Cc2ccc(OC)c(OC)c2)[C@@H]2C[C@@H](C3OCCO3)ON2O[C@H](OC2CCCC2(c2ccccc2)c2ccccc2)[C@@H]1OC(C)=O (stereo partly specified) | 60.8 µM | – | > 100 | – | 44.1 | > 100 µM | 29.5 µM | 47.3 µM | 50.3 | > 100 | 43.9 | – | – | – | – | – | – | – | – |
| CC(/C=N\NC(=S)N1CCCCC1)=N/NC(=S)N1CCCCC1 | – | 14.7 | 12.1 | 15.8 | 14.6 | > 100 µM | 6.36 µM | 18.1 µM | – | 11.8 | 15.4 | – | – | – | – | – | – | – | – |
| CC(=O)Nc1ccc(-c2nc3ccccc3s2)cc1 | > 100 µM | > 100 | – | > 100 | > 100 | 67.1 µM | > 100 µM | > 100 µM | > 100 | > 100 | > 100 | > 100 | – | – | – | – | – | – | – |
| CC(C)C1=C(Cc2ccccc2)C(=O)O/C1=C\c1cc(Cl)c(O)c(Cl)c1 | 41.5 µM | 67.7 | 37.4 | 30.1 | 48.2 | 44.4 µM | – | 35.9 µM | – | 55.1 | 32.2 | 41.7 | – | – | – | – | – | – | – |
| CC12CCC3C(CCC4=CC(O)CCC43C=O)C1(O)CCC2c1ccc(=O)oc1 (stereo unspecified) | 0.129 µM and 0.523 µM | – | – | 0.0253 | 0.0154 | 0.0115 µM and 0.0515 µM | 0.0483 µM and 0.0815 µM | 0.14 µM and 0.104 µM | – | – | – | – | 0.0115 µM and 0.05 µM | 0.05 | 0.00153 | 0.05 | 0.05 | 0.00766 | 0.05 |
